Source: ChEMBL document CHEMBL1201862, “PubChem BioAssay data set” (2004)
Where a name gives a salt, the structure may show the parent alone.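 Step 1: Grow cells in 96-well plates. Step 2: Expose to compound for 48 hours at 5 concentrations. Step 3: Interpolate endpoints linearly; if unreached, use highest concentration. Here, GI50 denotes the concentration required for 50% inhibition of growth.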 Active and inactive are the calls of the source. No stated cut-off is given here; in the data, active = GI50 up to about 1.1 µM and inactive = higher. Residues, ends and D or L forms follow the SMILES beside them. *: point of attachment. Tfa = O=C(C(F)(F)F)*

What was measured:
Assay in all cases: DTP human tumour cell line panel, 48 h
786-0 = tested on: 786-0
A498 = tested on: A498
A549 = tested on: A549
ACHN = tested on: ACHN
BT-549 = tested on: BT-549
CAKI-1 = tested on: CAKI-1
CCRF-CEM = tested on: CCRF-CEM
COLO 205 = tested on: COLO 205
DU-145 = tested on: DU-145
EKVX = tested on: EKVX
HCC 2998 = tested on: HCC 2998
HCT-116 = tested on: HCT-116
HCT-15 = tested on: HCT-15
HOP-62 = tested on: HOP-62
HT-29 = tested on: HT-29
Hs-578T = tested on: Hs-578T
IGROV-1 = tested on: IGROV-1
K562 = tested on: K562
KM12 = tested on: KM12
M14 = tested on: M14
MCF7 = tested on: MCF7
MDA-MB-231 = tested on: MDA-MB-231
MDA-MB-435 = tested on: MDA-MB-435
MDA-N = tested on: MDA-N
MOLT-4 = tested on: MOLT-4
Malme-3M = tested on: Malme-3M
NCI-H226 = tested on: NCI-H226
NCI-H23 = tested on: NCI-H23
NCI-H460 = tested on: NCI-H460
NCI-H522 = tested on: NCI-H522
NCI/ADR-RES = tested on: NCI/ADR-RES
OVCAR-3 = tested on: OVCAR-3
OVCAR-4 = tested on: OVCAR-4
OVCAR-5 = tested on: OVCAR-5
OVCAR-8 = tested on: OVCAR-8
PC-3 = tested on: PC-3
RPMI-8226 = tested on: RPMI-8226
RXF 393 = tested on: RXF 393
SF-268 = tested on: SF-268
SF-295 = tested on: SF-295
SF-539 = tested on: SF-539
SK-MEL-2 = tested on: SK-MEL-2
SK-MEL-5 = tested on: SK-MEL-5
SK-OV-3 = tested on: SK-OV-3
SN12C = tested on: SN12C
SNB-19 = tested on: SNB-19
SNB-75 = tested on: SNB-75
SR = tested on: SR
T47D = tested on: T47D
TK-10 = tested on: TK-10
U-251 = tested on: U-251
UACC-257 = tested on: UACC-257
UACC-62 = tested on: UACC-62
UO-31 = tested on: UO-31
HOP-92 = tested on: HOP-92
SK-MEL-28 = tested on: SK-MEL-28
SW-620 = tested on: SW-620

`Cc1cc(N(CCC#N)CCC#N)ccc1C(/N=N/c1ccc(Cl)cc1)=N\NC(=O)c1cc(Cl)ccc1O` was tested, and the GI50 (786-0) was 30.6 µM (inactive), the GI50 (A498) was 29.1 µM (inactive) and the GI50 (A549) was 31.3 µM (inactive). For the same molecule, the GI50 (ACHN) was 32.4 µM (inactive), the GI50 (BT-549) was 36.7 µM (inactive) and the GI50 (CAKI-1) was > 100 µM (inactive). The GI50 (CCRF-CEM) was 37 µM (inactive), the GI50 (COLO 205) was 47.9 µM (inactive) and the GI50 (DU-145) was > 100 µM (inactive). The GI50 (EKVX) was 36.4 µM (inactive), the GI50 (HCC 2998) was 29.9 µM (inactive) and the GI50 (HCT-116) was 71.4 µM (inactive). The GI50 (HCT-15) was 39.4 µM, the GI50 (HOP-62) was 20.5 µM (inactive) and the GI50 (HT-29) was 45.9 µM (inactive). For the same molecule, the GI50 (Hs-578T) was 19.5 µM (inactive), the GI50 (IGROV-1) was 30.6 µM (inactive) and the GI50 (K562) was 76.2 µM (inactive). The GI50 (KM12) was 58.9 µM (inactive), the GI50 (M14) was > 100 µM (inactive) and the GI50 (MCF7) was 29.4 µM (inactive). The GI50 (MDA-MB-231) was 30.8 µM (inactive), the GI50 (MDA-MB-435) was > 100 µM (inactive) and the GI50 (MDA-N) was > 100 µM (inactive). The GI50 (MOLT-4) was 53.5 µM (inactive), the GI50 (Malme-3M) was 62.7 µM (inactive) and the GI50 (NCI-H226) was 28.7 µM (inactive). The GI50 (NCI-H23) was 40.2 µM (inactive), the GI50 (NCI-H460) was 27.9 µM (inactive) and the GI50 (NCI-H522) was 16.7 µM (inactive). The GI50 (NCI/ADR-RES) was 52.8 µM (inactive), the GI50 (OVCAR-3) was 19.1 µM (inactive) and the GI50 (OVCAR-4) was 27.1 µM (inactive). For the same molecule, the GI50 (OVCAR-5) was > 100 µM (inactive), the GI50 (OVCAR-8) was 35.6 µM (inactive) and the GI50 (PC-3) was 35.2 µM (inactive). The GI50 (RPMI-8226) was > 100 µM (inactive), the GI50 (RXF 393) was 22.2 µM (inactive) and the GI50 (SF-268) was 27.7 µM (inactive). The GI50 (SF-295) was 22.8 µM (inactive), the GI50 (SF-539) was 25 µM (inactive) and the GI50 (SK-MEL-2) was 67 µM (inactive). For the same molecule, the GI50 (SK-MEL-5) was > 100 µM (inactive), the GI50 (SK-OV-3) was 34.8 µM (inactive) and the GI50 (SN12C) was 70.5 µM (inactive). For the same molecule, the GI50 (SNB-19) was 25.1 µM (inactive), the GI50 (SNB-75) was 30.1 µM (inactive) and the GI50 (SR) was 38.7 µM (inactive). For the same molecule, the GI50 (T47D) was 31.6 µM (inactive), the GI50 (TK-10) was 30 µM (inactive) and the GI50 (U-251) was 37.1 µM (inactive). The GI50 (UACC-257) was 72.8 µM (inactive), the GI50 (UACC-62) was 43.3 µM (inactive) and the GI50 (UO-31) was 64.4 µM (inactive).

In the case of `O=C(O)CC(NC(=O)C(F)(F)F)C(=O)NC(Cc1ccc(O)cc1)C(=O)O` (stereo not drawn) (Tfa-Asp-Tyr-OH; configuration not given here), the GI50 (786-0) is reported as > 50 µM (inactive), the GI50 (A549) is reported as > 50 µM (inactive) and the GI50 (ACHN) is reported as > 50 µM (inactive). For the same molecule, the GI50 (BT-549) was > 50 µM (inactive), the GI50 (CAKI-1) was > 50 µM (inactive) and the GI50 (COLO 205) was > 50 µM (inactive). For the same molecule, the GI50 (DU-145) was > 50 µM (inactive), the GI50 (EKVX) was > 50 µM (inactive) and the GI50 (HCC 2998) was > 50 µM (inactive). The GI50 (HCT-15) was > 50 µM, the GI50 (HOP-62) was > 50 µM (inactive) and the GI50 (HOP-92) was > 50 µM (inactive). The GI50 (HT-29) was > 50 µM (inactive), the GI50 (Hs-578T) was > 50 µM (inactive) and the GI50 (IGROV-1) was > 50 µM (inactive). For the same molecule, the GI50 (K562) was > 50 µM (inactive), the GI50 (KM12) was > 50 µM (inactive) and the GI50 (M14) was > 50 µM (inactive). The GI50 (MCF7) was > 50 µM (inactive), the GI50 (MDA-MB-231) was > 50 µM (inactive) and the GI50 (MDA-MB-435) was > 50 µM (inactive). The GI50 (MDA-N) was > 50 µM (inactive), the GI50 (MOLT-4) was > 50 µM (inactive) and the GI50 (Malme-3M) was > 50 µM (inactive). The GI50 (NCI-H226) was > 50 µM (inactive), the GI50 (NCI-H23) was > 50 µM (inactive) and the GI50 (NCI-H460) was > 50 µM (inactive). For the same molecule, the GI50 (NCI-H522) was > 50 µM (inactive), the GI50 (NCI/ADR-RES) was > 50 µM (inactive) and the GI50 (OVCAR-3) was > 50 µM (inactive). For the same molecule, the GI50 (OVCAR-5) was > 50 µM (inactive), the GI50 (OVCAR-8) was > 50 µM (inactive) and the GI50 (PC-3) was > 50 µM (inactive). For the same molecule, the GI50 (RPMI-8226) was > 50 µM (inactive), the GI50 (RXF 393) was > 50 µM (inactive) and the GI50 (SF-268) was > 50 µM (inactive). For the same molecule, the GI50 (SF-295) was > 50 µM (inactive), the GI50 (SF-539) was > 50 µM (inactive) and the GI50 (SK-MEL-28) was > 50 µM (inactive). The GI50 (SK-MEL-2) was > 50 µM (inactive), the GI50 (SK-MEL-5) was > 50 µM (inactive) and the GI50 (SK-OV-3) was > 50 µM (inactive). For the same molecule, the GI50 (SN12C) was > 50 µM (inactive), the GI50 (SNB-19) was > 50 µM (inactive) and the GI50 (SNB-75) was > 50 µM (inactive). The GI50 (SR) was > 50 µM (inactive), the GI50 (SW-620) was > 50 µM (inactive) and the GI50 (T47D) was > 50 µM (inactive). The GI50 (TK-10) was > 50 µM (inactive), the GI50 (U-251) was > 50 µM (inactive) and the GI50 (UACC-257) was > 50 µM (inactive). For the same molecule, the GI50 (UACC-62) was > 50 µM (inactive) and the GI50 (UO-31) was > 50 µM (inactive).
